From patent US7220745B2, “Heterocyclic compounds useful to treat HCV” (Rigel Pharmaceuticals, priority 2003, dated 2007) come the findings set out here.

The experiment concerns HCV replicon. As to the kind of experiment: HCV replicon assay (luciferase, 5-2 Luc replicon cells). It is filed as cell-based. As to conditions: Hepatitis C virus, 24 hours with compound, luciferase activity. From the text:
In one embodiment, the inhibitory activity of the compounds can be confirmed in a replicon assay that assesses the ability of a test compound to block or inhibit HCV replication in replicon cells. One example of a suitable replicon assay is the liver cell-line Huh 7-based replicon assay described in Lohmann et al., 1999, Science 285:110–113. A specific example of this replicon assay which utilizes luciferase translation is provided in the Examples Section. In one embodiment of this assay, the amount of test compound that yields a 50% reduction in translation as compared to a control cell (IC50) may be determined.
The inhibitory activity of certain exemplary compounds of the invention was confirmed using an HCV replicon assay. The HCV replicon can include such features as the HCV 5′ untranslated region including the HCV IRES, the HCV 3′ untranslated region, selected HCV genes encoding HCV polypeptides, selectable markers, and a reporter gene such as luciferase, GFP, etc. In the assay, actively dividing 5–2 Luc replicon-comprising cells (obtained from Ralf Bartenschlager; see Lohmann et al., 1999, Science 285:110–113) were seeded at a density of between about 5,000 and 7,500 cells/well onto 96 well plates (about 90 μl of cells per well) and incubated at 37° C. and 5% CO2 for 24 hours. Then, the test compound (in a volume of about 10 μl) was added to the wells at various concentrations and the cells were incubated for an additional 24 hours before luciferase assay. Briefly, the Bright-Glo reagent was diluted 1:1 with PBS and 100 μl of diluted reagent was added to each well. After 5 min of incubation at room temperature, luciferin emission was quantified with a luminometer. In this assay, the amount of test compound that yielded a 50% reduction in luciferase activity (IC50) was determined.

Broadly, the IC50 is the concentration that inhibits the measured activity by half. With `O=[N+]([O-])c1cccc(-c2cnc(-c3c(Cl)cccc3Cl)s2)c1` [Compound 17, 2-(2,6-dichlorophenyl)-5-(3-nitrophenyl)thiazole], the IC50 is above 10 µM.

Regarding `O=C(Nc1ccccc1-c1cc(-c2c(Cl)cccc2Cl)no1)C(Cl)Cl` [Compound 18, 2,2-Dichloro-N-[2-[3-(2,6-dichlorophenyl)-5-isoxazolyl]phenyl]Acetamide], the IC50 is above 10 µM.

With `O=C(Nc1cccc(-c2cnc(-c3c(Cl)cccc3Cl)s2)c1)C(Cl)Cl` [Compound 19, 2,2-Dichloro-N-[3-[2-(2,6-dichlorophenyl)-5-thiazolyl]phenyl]Acetamide], the IC50 was above 10 µM.

Regarding `Nc1cccc(-c2cnc(-c3c(Cl)cccc3Cl)s2)c1` [Compound 20, 2-(2,6-dichlorophenyl)-5-(3-aminophenyl)thiazole], the half-maximal inhibitory concentration (IC50) was above 10 µM.

Take `O=C(Nc1cccc(-c2cc(-c3c(Cl)cccc3Cl)on2)c1)C(Cl)Cl` [Compound 39, 2,2-Dichloro-N-[3-[5-(2,6-dichlorophenyl)-3-isoxazolyl]phenyl]Acetamide]: the IC50 was below 10 µM.

On to `O=C(Nc1ccc(-c2cc(-c3ccccc3Cl)no2)cc1)C(Cl)Cl` [Compound 55, 2,2-Dichloro-N-[4-[3-(2-chlorophenyl)-5-isoxazolyl]phenyl]Acetamide], for which the half-maximal inhibitory concentration (IC50) is at most 10 µM.

`O=C(Nc1ccc(-c2cc(-c3c(F)cccc3F)no2)cc1)C(Cl)Cl` [Compound 59, 2,2-Dichloro-N-[4-[3-(2,6-difluorophenyl)-5-isoxazolyl]phenyl]Acetamide]: the IC50 is at most 10 µM.

As for `O=C(Nc1ccc(-c2cc(-c3c(Cl)cccc3Cl)no2)cc1)C(Cl)Cl` [Compound 60, 2,2-Dichloro-N-[4-[3-(2,6-dichlorophenyl)-5-isoxazolyl]phenyl]Acetamide], the IC50 is above 10 µM.
